Legend:
[1] = target: T1, glycineB binding site of the NMDA receptor channel (Rattus norvegicus, UniProt P35439); assay: Receptor binding study, displacement of (3H)-MDL 105.519 from rat brain membrane homogenates; conditions: 10 μM of the compound under test, rat cortex and hippocampus membrane homogenate; for inhibition at 10 µM: read-out: % inhibition (percentage fraction of the bound radioactive ligand displaced from its specific binding)
T1 construct: the cortex and hippocampus are dissected out of freshly harvested rat brains and homogenised; from tissue; host or cells: rat (Wistar, male) brain cortex and hippocampus membrane homogenate
Protocol: (a) Receptor Binding Study (glycineB Binding Site of the NMDA Receptor Channel)
The affinity of the compounds of the above general formula I used according to the invention for the glycine binding site of the NMDA receptor channel is determined using brain membrane homogenates (homogenate of cortex and hippocampus area from the brain of male rats, Wistar strain), as for example described in B. M. Baron, B. W. Siegel, B. L. Harrison, R. S. Gross, C. Hawes and P. Towers, Journal of Pharmacology and Experimental Therapeutics, (1996), vol. 279, page 62. The corresponding literature description is hereby introduced as a reference and is deemed to be part of the disclosure.
To this end, the cortex and hippocampus are dissected out of freshly harvested rat brains and homogenised with ice cooling in 5 mmol/l of TRIS-acetate buffer, […] of sucrose, pH 7.4 (10 ml/g fresh weight) using a Potter homogeniser (Braun/Melsungen, 10 piston strokes at 500 rpm) and then centrifuged for 10 minutes at 1,000 g and 4° C. The first supernatant is collected and the sediment again homogenised with ice cooling with 5 mmol/l of tris-acetate buffer, 0.32 mol/l of sucrose, pH 7.4 (5 ml/g of original fresh weight) with the Potter homogeniser (10 piston strokes at 500 rpm) and centrifuged for 10 minutes at 1,000 g and 4° C. The resultant supernatant is combined with the supernatant from the first centrifugation and centrifuged at 17,000 g for 20 minutes at 4° C. The supernatant after this centrifugation is discarded and the membrane sediment resuspended with 5 mmol/l of TRIS-acetate buffer, pH 8.0 (20 ml/g of original fresh weight) and homogenised with 10 piston strokes at 500 rpm.
The membrane homogenate is then incubated for 1 hour at 4° C. and centrifuged for 30 minutes at 50,000 g and 4° C. The supernatant is discarded and the centrifuge tubes containing the membrane sediment are sealed with Parafilm and frozen for 24 hours at −20° C. On the following day, the membrane sediment is thawed and resuspended with ice-cold 5 mmol/I TRIS-acetate buffer, 0.1% saponin (wt./vol.), pH 7.0 (10 ml/g of original fresh weight) and homogenised with 10 piston strokes at 500 rpm and then centrifuged for 20 minutes at 50,000 g and 4° C. The resultant supernatant is discarded and the sediment resuspended in a small volume with 5 mmol/l of TRIS-acetate buffer, pH 7.0 (approx. 2 ml/g of original fresh weight) and again homogenised with 10 piston strokes at 500 rpm. After determination of the protein content, the membrane homogenate is adjusted with 5 mmol/l TRIS-acetate buffer, pH 7.0, to a protein concentration of 10 mg of protein/ml and frozen in aliquots until used for testing.
The receptor binding test is performed by thawing aliquots, diluting them 1:10 with 5 mmol/l TRIS-acetate buffer, pH 7.0, homogenising them with ice-cooling with 10 piston strokes at 500 rpm with the Potter homogeniser (10 piston strokes at 500 rpm) and centrifuging them for 60 minutes at 55,000 g at 4° C. The supernatant is decanted and the membrane sediment adjusted with ice-cold 50 mmol/l TRIS-acetate buffer, pH 7.0, to a protein concentration of 1 mg/ml and again homogenised with 10 piston strokes at 500 rpm and kept in suspension in an ice bath with stirring on a magnetic stirrer. This membrane homogenate is used in the receptor binding test in a quantity of 100 μl per 1 ml batch (0.1 mg of protein/ml in the final batch). In the binding test, the buffer used is 50 mmol/l TRIS-acetate buffer, pH 7.0, and the radioactive ligand […] of (3H)-MDL 105.519 (B. M. Baron et al. 1996). The level of nonspecific binding is determined in the presence of 1 mmol/l of glycine.
In further batches, the compounds used according to the invention are added in concentration series and the displacement of the radioactive ligand from its specific binding at the glycine-binding site of the NMDA receptor channel is determined. […]

[2] = test system: male albino mice (NMRI); assay: Formaldehyde test (mouse), second (late) phase; type: in vivo; conditions: formaldehyde-induced nociception
Protocol: (b) Formaldehyde Test (Mouse)
The investigations for determining the antinociceptive action of the substituted 2-heteroarylaminoacetic acid compounds of the above general formula I used according to the invention are carried out by the formaldehyde test on male albino mice (NMRI, 25-35 g, Iffa, Credo, Belgium).
In the formaldehyde test, a distinction is drawn between the first (early) phase (0-15 min after formaldehyde injection) and the second (late) phase (15-60 min after formaldehyde injection) (D. Dubuisson et al., Pain, vol. 4, pp. 161-174 (1977)). The early phase, being a direct response to the formaldehyde injection, is considered to be a model of acute pain, while the late phase is considered to be a model of persistent (chronic) pain (T. J. Coderre et al., Pain, vol. 52, pp. 259-285 (1993)). The corresponding literature descriptions are hereby introduced as a reference and are deemed to be part of the disclosure.
The substituted 2-heteroarylaminoacetic acid compounds of the above general formula I used according to the invention are investigated in the second phase of the formaldehyde test in order to obtain information regarding the action of the substances in chronic/inflammatory pain.
A nociceptive reaction is induced in the freely mobile test animals by a single, subcutaneous formaldehyde injection (20 μl, 1% aqueous solution) into the dorsal side of the rear hind paw, the reaction being expressed by distinct licking and biting of the affected paw.
For the investigation period in the second (late) phase of the formaldehyde test, nociceptive behaviour is continuously recorded by observing the animals. […] After injection of the substances which are antinociceptively active in the formaldehyde test, the described behaviours of the animals are reduced or even eliminated. In the same manner as in the substance tests, in which the animals receive an injection of test substance before the formaldehyde, the control animals are injected with vehicle, i.e. solvent (for example 0.9% NaCl solution) before administration of the formaldehyde. The behaviour the animals after administration of the substance (n=10 per substance dose) is compared with a control group (n=10). On the basis of the quantification of the pain behaviour, the action of the substance in the formaldehyde test is determined as a percentage change of the control. ED50 calculations are carried out by regression analysis. The time of administration before the formaldehyde injection was selected as a function of the mode of administration of the compounds used according to the invention (intraperitoneal: 15 min; intravenous: 5 min).

Compound	inhibition at 10 µM [1]	Inhibition (%) at dose ([2]; at 46.4 mg/kg)	Inhibition (%) at dose ([2]; at 10 mg/kg)	% inhibition (percentage fraction of the bound radioactive ligand displaced from its specific binding) [1]
O=C(O)C(Nc1cc(Cl)cc(Cl)c1)c1cc2ccccc2s1 (centres unmarked) [Example 2, (Benzo[b]thiophen-2-yl)-(3,5-dichlorophenylamino)acetic acid]	85%	55% (at 46.4 mg/kg)	–	–
O=C(O)C(Nc1cc(Cl)cc(Cl)c1)c1csc2ccccc12 (centres unmarked) [Example 3, (Benzo[b]thiophen-3-yl)-(3,5-dichlorophenylamino)acetic acid]	15%	–	–	–
O=C([O-])C(Nc1cc(Cl)cc(Cl)c1)c1cc2ccccc2o1.[Na+] (centres unmarked) [Example 6, (Benzofuran-2-yl)-(3,5-dichlorophenylamino)acetic acid, sodium salt]	97%	–	42% (at 10 mg/kg)	–
O=C([O-])C(Nc1cc(Cl)cc(Cl)c1)c1cc2ccccc2s1.[Na+] (centres unmarked) [Example 7, (Benzo[b]thiophen-2-yl)-(3,5-dichlorophenylamino)acetic acid, sodium salt]	–	11% (at 46.4 mg/kg)	–	85%
O=C([O-])C(Nc1cc(Cl)cc(Cl)c1)c1csc2ccccc12.[Na+] (centres unmarked) [Example 8, (Benzo[b]thiophen-3-yl)-(3,5-dichlorophenylamino)acetic acid, sodium salt]	–	–	–	24%
(Benzo[b]furan-2-yl)-(3,5-bis(trifluoromethyl)phenyl)acetic acid, sodium salt [Example 10]	–	60% (at 46.4 mg/kg)	–	29%
(Benzo[b]thiophen-2-yl)-(3,5-bis(trifluoromethyl)phenyl)acetic acid, sodium salt [Example 9]	–	–	–	13%

Source: US7754754B2, “Pharmaceutical formulations containing substituted 2 heteroarylaminoacetic acid compounds” (Gruenenthal GmbH, priority 2003, dated 2010)
